Reference: patent publication US20230365585A1, “BENZODIAZEPINE DERIVATIVES USEFUL IN TREATING A RESPIRATORY SYNCYTIAL VIRUS INFECTION” (priority 2020, published 2023)

What was measured:
RSV A2 = test: RSV plaque reduction assay; assay type: cell-based, RSV (RSV A2 ECACC, 0709161v); conditions: human respiratory syncytial virus, HepG2, 48 h, Hep-G2 cells, RSV A2, 2 days; mean of at least two experiments
Protocol: Compounds were subjected to RSV plaque reduction assays according to the following protocol.
Hep-G2 cells (ECACC, 85011430) were passaged in flasks and seeded in 24-well plates in DMEM containing antibiotics and supplemented with 10% FBS. During inoculation and subsequent incubation, cells were cultured in DMEM containing 2% FBS. 100 plaque forming unit/well of RSV (RSV A2 ECACC, 0709161v) was mixed with eight serial dilutions of compound. Subsequently, 100 µL of the virus/compound mixtures was added to confluent Hep-G2 cell monolayers. The cells and virus/compound mixtures were incubated at 37° C. in a humidified 5% CO2 incubator for 2 h prior to removal of the inoculum and addition of 1 mL of overlay (DMEM containing 2% FBS and 0.8% CMC) containing compound dilutions. The cells and were incubated at 37° C. in a humidified 5% CO2 incubator for 2 days.
Cells were washed with PBS before adding 75%/25% v/v EtOH/MeOH, for 3 min. Fix ative was removed and plates were washed with PBS. A pre-titrated amount of the primary antibody was added in 200 µL PBS/2% milk powder, and plates incubated for 90 min at 37° C. The plates were washed 3 times with PBS/0.05% Tween20 before addition of rabbit anti-goat horse radish peroxidase in 200 µL PBS/2% milk powder, and incubated for 1 h at 37° C. Following three wash steps with PBS/0.05% Tween20, 200 µL ready-to-use TrueBlue was added and plates were incubated at rt for 10-15 min before washing with water. After removal of water, plates were air-dried in the dark.
(§1) Plates were scanned and analysed using the Immunospot S6 Macro analyser, which is equipped with BioSpot analysis software for counting immunostained plaques (virospots). Plaque counts were used to calculate % infection relative to the mean of the plaque count in the virus control wells for RSV. […] Plaque EC50 and cell toxicity CC50 values are a mean of at least two experiments and figures are rounded to whole units.

Cell cytotoxicity CC50 = assay type: cell-based; conditions: human; mean of at least two experiments
Description: as §1

Row | SMILES | EC50 (RSV A2) | CC50 (Cell cytotoxicity CC50)
1 | CCc1ccc(-c2nn3c(c2C(=O)N[C@H]2N=C(c4ccccc4)c4cccc(F)c4NC2=O)O[C@H]2CC[C@@H]3C2)cn1 (single isomer, unassigned) [Example 30-2, (1R*,8S*)-4-(6-ethylpyridin-3-yl)-N-[(3S)-9-fluoro-2-oxo-5-phenyl-2,3-dihydro-1H-1,4-benzodiazepin-3-yl]-7-oxa-2,3-diazatricyclo[6.2.1.02,6]undeca-3,5-diene-5-carboxamide] | 63 nM | > 25000 nM
2 | CS(=O)(=O)c1ccc(-c2nn3c(c2C(=O)N[C@H]2N=C(c4ccccc4)c4cccc(F)c4NC2=O)OC2CCC3C2)c(F)c1 (stereo partly drawn) [Example 32, 4-(2-Fluoro-4-methylsulfonylphenyl)-N-[(3S)-9-fluoro-2-oxo-5-phenyl-1,3-dihydro-1,4-benzodiazepin-3-yl]-7-oxa-2,3-diazatricyclo[6.2.1.02,6]undeca-3,5-diene-5-carboxamide] | 23 nM | > 25000 nM
3 | CCNc1ccc(-c2nn3c(c2C(=O)N[C@H]2N=C(c4ccccc4)c4ccccc4NC2=O)OC(C)CCC3)c(F)n1 (single isomer, unassigned) [Example 10-1, (5R*)-2-[6-(ethylamino)-2-fluoropyridin-3-yl]-5-methyl-N-[(3S)-2-oxo-5-phenyl-1,3-dihydro-1,4-benzodiazepin-3-yl]-5,6,7,8-tetrahydropyrazolo[5,1-b][1,3]oxazepine-3-carboxamide] | 26 nM | > 25000 nM
4 | CC1CCCn2nc(-c3ccccc3F)c(C(=O)N[C@H]3N=C(c4ccccc4)c4ccccc4NC3=O)c2O1 (stereo partly drawn) [Example 18, 2-(2-Fluorophenyl)-5-methyl-N-[(3S)-2-oxo-5-phenyl-1,3-dihydro-1,4-benzodiazepin-3-yl]-5,6,7,8-tetrahydropyrazolo[5,1-b][1,3]oxazepine-3-carboxamide] | 37 nM | > 25000 nM
5 | CC(C)Nc1ccc(-c2nn3c(c2C(=O)N[C@H]2N=C(c4ccccc4)c4cccc(F)c4NC2=O)OCC(F)(F)CC3)cn1 [Example 23, 6,6-Difluoro-N-[(3S)-9-fluoro-2-oxo-5-phenyl-2,3-dihydro-1H-1,4-benzodiazepin-3-yl]-2-{6-[(propan-2-yl)amino]pyridin-3-yl}-5H,6H,7H,8H-pyrazolo[3,2-b][1,3]oxazepine-3-carboxamide] | 52 nM | > 25000 nM
6 | CCC1CCCn2nc(-c3ccc(C)nc3)c(C(=O)N[C@H]3N=C(c4ccccc4)c4ccccc4NC3=O)c2O1 (single isomer, unassigned) [Example 26-1, (5R*)-5-ethyl-2-(6-methylpyridin-3-yl)-N-[(3 S)-2-oxo-5-phenyl-2,3-dihydro-1H-1,4-benzodiazepin-3-yl]-5H,6H,7H,8H-pyrazolo[3,2-b][1,3]oxazepine-3-carboxamide] | 314 nM | > 25000 nM
7 | CCC1CCCn2nc(-c3ccccc3F)c(C(=O)N[C@H]3N=C(c4ccccc4)c4cccc(F)c4NC3=O)c2O1 (some centres unmarked) [Example 25, 5-Ethyl-N-[(3 S)-9-fluoro-2-oxo-5-phenyl-1,3-dihydro-1,4-benzodiazepin-3-yl]-2-(2-fluorophenyl)-5,6,7,8-tetrahydropyrazolo[5,1-b][1,3]oxazepine-3-carboxamide] | 83 nM | > 25000 nM
8 | O=C(N[C@H]1N=C(c2ccccc2)c2cccc(F)c2NC1=O)c1c(-c2ccccc2F)nn2c1O[C@H]1CC[C@@H]2C1 (single isomer, unassigned) [Example 19-2, (1R*,8S*)-N-[(3 S)-9-fluoro-2-oxo-5-phenyl-2,3-dihydro-1H-1,4-benzodiazepin-3-yl]-4-(2-fluorophenyl)-7-oxa-2,3-diazatricyclo[6.2.1.0^2,6]undeca-3,5-diene-5-carboxamide] | 53 nM | > 25000 nM
9 | CC1CCCn2nc(-c3ccc(F)cc3F)c(C(=O)N[C@H]3N=C(c4ccccc4)c4cccc(F)c4NC3=O)c2O1 (single isomer, unassigned) [Example 17-1, (5R*)-2-(2,4-difluorophenyl)-N-[(3 S)-9-fluoro-2-oxo-5-phenyl-1,3-dihydro-1,4-benzodiazepin-3-yl]-5-methyl-5,6,7,8-tetrahydropyrazolo[5,1-b][1,3]oxazepine-3-carboxamide] | 19 nM | > 25000 nM
10 | CC1CCCn2nc(-c3ccc(F)cc3F)c(C(=O)N[C@H]3N=C(c4ccccc4)c4ccccc4NC3=O)c2O1 (single isomer, unassigned) [Example 16-1, (5R*)-2-(2,4-difluorophenyl)-5-methyl-N-[(3S)-2-oxo-5-phenyl-1,3-dihydro-1,4-benzodiazepin-3-yl]-5,6,7,8-tetrahydropyrazolo[5,1-b][1,3]oxazepine-3-carboxamide] | 28 nM | > 25000 nM
11 | Cc1cncc(-c2nn3c(c2C(=O)N[C@H]2N=C(c4ccccc4)c4ccccc4NC2=O)OCCCC3)c1 [Example 3, 2-(5-Methylpyridin-3-yl)-N-[(3S)-2-oxo-5-phenyl-1,3-dihydro-1,4-benzodiazepin-3-yl]-5,6,7,8-tetrahydropyrazolo[5,1-b][1,3]oxazepine-3-carboxamide] | 256 nM | > 25000 nM
12 | CCC1CCCn2nc(-c3ccccc3F)c(C(=O)N[C@H]3N=C(c4ccccc4)c4ccccc4NC3=O)c2O1 (single isomer, unassigned) [Example 24-1, (5R*)-5-ethyl-2-(2-fluorophenyl)-N-[(3S)-2-oxo-5-phenyl-2,3-dihydro-1H-1,4-benzodiazepin-3-yl]-5H,6H,7H,8H-pyrazolo[3,2-b][1,3]oxazepine-3-carboxamide] | 111 nM | > 25000 nM
13 | O=C(N[C@H]1N=C(c2ccccc2)c2ccccc2NC1=O)c1c(-c2ccccc2)nn2c1OCCCC2 [Example 1, N-[(3S)-2-oxo-5-phenyl-1,3-dihydro-1,4-benzodiazepin-3-yl]-2-phenyl-5,6,7,8-tetrahydropyrazolo[5,1-b][1,3]oxazepine-3-carboxamide] | 79 nM | > 25000 nM
14 | CC(C)Nc1ccc(-c2nn3c(c2C(=O)N[C@H]2N=C(c4ccccc4)c4cccc(F)c4NC2=O)O[C@@H]2CC[C@H]3C2)cn1 (single isomer, unassigned) [Example 31-1, (1S*,8R*)-N-[(3S)-9-fluoro-2-oxo-5-phenyl-2,3-dihydro-1H-1,4-benzodiazepin-3-yl]-4-{6-[(propan-2-yl)amino]pyridin-3-yl}-7-oxa-2,3-diazatricyclo[6.2.1.02,6]undeca-3,5-diene-5-carboxamide] | 63 nM | > 25000 nM
15 | CCC1CCCn2nc(-c3ccccc3F)c(C(=O)N[C@H]3N=C(c4ccccc4)c4cccc(F)c4NC3=O)c2O1 (single isomer, unassigned) [Example 25-1, (5R*)-5-ethyl-2-(2-fluorophenyl)-N-[(3S)-9-fluoro-2-oxo-5-phenyl-1,3-dihydro-1,4-benzodiazepin-3-yl]-5,6,7,8-tetrahydropyrazolo[5,1-b][1,3]oxazepine-3-carboxamide] | 93 nM | > 25000 nM
16 | CC(C)Nc1ccc(-c2nn3c(c2C(=O)N[C@H]2N=C(c4ccccc4)c4cccc(F)c4NC2=O)OC(C)CCC3)c(F)n1 (single isomer, unassigned) [Example 13-1, (5R*)-N-[(3S)-9-fluoro-2-oxo-5-phenyl-1,3-dihydro-1,4-benzodiazepin-3-yl]-2-[2-fluoro-6-(propan-2-ylamino)pyridin-3-yl]-5-methyl-5,6,7,8-tetrahydropyrazolo[5,1-b][1,3]oxazepine-3-carboxamide] | 26 nM | > 25000 nM
17 | CCNc1ccc(-c2nn3c(c2C(=O)N[C@H]2N=C(c4ccccc4)c4cccc(F)c4NC2=O)OC(C)CCC3)c(F)n1 (stereo partly drawn) [Example 11, 2-[6-(Ethylamino)-2-fluoropyridin-3-yl]-N-[(3S)-9-fluoro-2-oxo-5-phenyl-1,3-dihydro-1,4-benzodiazepin-3-yl]-5-methyl-5,6,7,8-tetrahydropyrazolo[5,1-b][1,3]oxazepine-3-carboxamide] | 18 nM | > 25000 nM
18 | CC(C)Nc1ccc(-c2nn3c(c2C(=O)N[C@H]2N=C(c4ccccc4)c4ccccc4NC2=O)OC(C)CCC3)c(F)n1 (single isomer, unassigned) [Example 12-1, (5R*)-2-[2-fluoro-6-(propan-2-ylamino)pyridin-3-yl]-5-methyl-N-[(3S)-2-oxo-5-phenyl-1,3-dihydro-1,4-benzodiazepin-3-yl]-5,6,7,8-tetrahydropyrazolo[5,1-b][1,3]oxazepine-3-carboxamide] | 35 nM | > 25000 nM
19 | O=C(N[C@H]1N=C(c2ccccc2)c2cccc(F)c2NC1=O)c1c(-c2ccccc2F)nn2c1S(=O)(=O)CCCC2 [Example 21, N-[(3S)-9-fluoro-2-oxo-5-phenyl-2,3-dihydro-1H-1,4-benzodiazepin-3-yl]-2-(2-fluorophenyl)-4,4-dioxo-5H,6H,7H,8H-4λ^6-pyrazolo[3,2-b][1,3]thiazepine-3-carboxamide] | 377 nM | > 25000 nM
